Four compounds from PubChem BioAssay AID1963979 (Molecular Pharmacology Branch, DTP, NCI, 2024) can be followed below.

pIC50: −log10 of the molar value. Several values for one entry are separate records, joined by “and”; a condition that tells them apart may be missing. Identical values can stand only once.

The subject of this assay is 361931-004-R-J1-PDC multicell spheroid viability. Kind of assay: Anticancer human tumor 361931-004-R-J1-PDC patient-derived colon adenocarcinoma cell line growth inhibition [PI3K]. The following applies: for viability, T/C: stronger effect = lower value. The procedure, abridged: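 Combination activity was assessed by viability in multicellular tumor spheroids carrying HUVEC and MSC components. Agents were tested with PI3K inhibitors from a Cmax-based top dose (or 10 microM) downward in half-log increments.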

The mark [1] stands for this setting: curve of first compound, second compound 0.0316 µM.
Setting [2] is: curve of first compound, second compound 0.1 µM.
The mark [3] stands for this setting: curve of first compound, second compound 0.316 µM.
[4] abbreviates: curve of first compound, second compound 1 µM.
The mark [5] stands for this setting: curve of first compound, second compound 3.16 µM.
Where [6] appears, read: curve of first compound, second compound 10 µM.
Where [7] appears, read: second compound 0.0316 µM, first compound 0.0316 µM.
[8] abbreviates: second compound 0.0316 µM, first compound 0.1 µM.
Where [9] appears, read: second compound 0.1 µM, first compound 0.0316 µM.
The mark [10] stands for this setting: second compound 0.1 µM, first compound 0.1 µM.
Where [11] appears, read: second compound 0.316 µM, first compound 0.0316 µM.
[12] abbreviates: second compound 0.316 µM, first compound 0.1 µM.
[13] abbreviates: second compound 1 µM, first compound 0.0316 µM.
The mark [14] stands for this setting: second compound 1 µM, first compound 0.1 µM.
Setting [15] is: second compound 3.16 µM, first compound 0.0316 µM.
[16] abbreviates: second compound 3.16 µM, first compound 0.1 µM.
The mark [17] stands for this setting: second compound 10 µM, first compound 0.0316 µM.
[18] abbreviates: second compound 10 µM, first compound 0.1 µM.

In general, pIC50 refers to −log10 of the IC50, conventionally taken in molar units. In general, viability, T/C refers to the ratio of treated to control.
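Further: spheroids exposed to agents for seven days before readout.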

Consider `C#Cc1c(F)ccc2cc(O)cc(-c3ncc4c(N5CC6CCC(C5)N6)nc(OCC56CCCN5CC(F)C6)nc4c3F)c12` (stereo unspecified) + CC(Nc1ncnc2nc[nH]c12)c1cc2cccc(Cl)c2c(=O)n1-c1ccccc1, for which the pIC50 under setting [1] was < 5.00; the pIC50 under setting [2] is < 5.00; the negative logarithm of the IC50 (pIC50) under setting [3] is < 5.00; the negative-log IC50 (pIC50) under setting [4] was < 5.00; the pIC50 under setting [5] was < 5.00; the pIC50 under setting [6] was < 5.00. Besides, the viability, T/C under setting [7] was 98.8%; the viability, T/C under setting [8] was 105%; the viability, T/C (second compound 0.0316 µM, first compound 0.316 µM) is 105%; the viability, T/C (second compound 0.0316 µM, first compound 1 µM) is 102%; the viability, T/C (second compound 0.0316 µM, first compound 3.16 µM) is 98.9%; the viability, T/C (second compound 0.0316 µM, first compound 10 µM) was 95.1%. Further, the viability, T/C was 105% under setting [9]; 103% under setting [10]; 96.8% (second compound 0.1 µM, first compound 0.316 µM); 100% (second compound 0.1 µM, first compound 1 µM); 104% (second compound 0.1 µM, first compound 3.16 µM); 93% (second compound 0.1 µM, first compound 10 µM). Also, the viability, T/C is, setting by setting: under setting [11], 106%; under setting [12], 99.7%; (second compound 0.316 µM, first compound 0.316 µM) 105%; (second compound 0.316 µM, first compound 1 µM) 100%; (second compound 0.316 µM, first compound 3.16 µM) 102%; (second compound 0.316 µM, first compound 10 µM) 93.3%. Moreover, the viability, T/C by setting is: under setting [13], 97.7%; under setting [14], 98.6%; (second compound 1 µM, first compound 0.316 µM) 100%; (second compound 1 µM, first compound 1 µM) 95.2%; (second compound 1 µM, first compound 3.16 µM) 104%; (second compound 1 µM, first compound 10 µM) 84.4%. The viability, T/C is, setting by setting: under setting [15], 104%; under setting [16], 107%; (second compound 3.16 µM, first compound 0.316 µM) 103%; (second compound 3.16 µM, first compound 1 µM) 106%; (second compound 3.16 µM, first compound 3.16 µM) 107%; (second compound 3.16 µM, first compound 10 µM) 81.9%. Moreover, the viability, T/C runs as follows: under setting [17], 104%; under setting [18], 99.8%; (second compound 10 µM, first compound 0.316 µM) 91.9%; (second compound 10 µM, first compound 1 µM) 91%; (second compound 10 µM, first compound 3.16 µM) 90%; (second compound 10 µM, first compound 10 µM) 79%.
As for `CC(C)n1nc(-c2ccc3oc(N)nc3c2)c2c(N)ncnc21`, the viability, T/C by setting is: (compound 0.000316 µM) 99.8% [middle of 4 runs]; (compound 0.001 µM) 102% [middle of 4 runs]; (compound 0.00316 µM) 108% and 100% (2×) and 104%; (compound 0.01 µM) 108% and 100% (2×) and 101%; (compound 0.0316 µM) 99.3% [middle of 4 runs]; (compound 0.1 µM) 76% [middle of 4 runs]. Further, under “curve of compound”, the pIC50 is < 7.00.
Take `CC(=O)c1c(C)c2cnc(Nc3ccc(N4CCNCC4)cn3)nc2n(C2CCCC2)c1=O` + Cc1nc(NC(=O)N2CCCC2C(N)=O)sc1-c1ccnc(C(C)(C)C(F)(F)F)c1: the pIC50 was < 7.00 under setting [1]; < 7.00 under setting [2]; < 7.00 under setting [3]; < 7.00 under setting [4]; < 7.00 under setting [5]; 7.25 under setting [6]. The viability, T/C (second compound 0.0316 µM, first compound 0.000316 µM) is 110%; the viability, T/C (second compound 0.0316 µM, first compound 0.001 µM) is 105%; the viability, T/C (second compound 0.0316 µM, first compound 0.00316 µM) is 101%; the viability, T/C (second compound 0.0316 µM, first compound 0.01 µM) was 98.7%; the viability, T/C under setting [7] was 99.6%; the viability, T/C under setting [8] is 78.2%. Also, the viability, T/C (second compound 0.1 µM, first compound 0.000316 µM) is 109%; the viability, T/C (second compound 0.1 µM, first compound 0.001 µM) was 106%; the viability, T/C (second compound 0.1 µM, first compound 0.00316 µM) was 96.8%; the viability, T/C (second compound 0.1 µM, first compound 0.01 µM) is 94.8%; the viability, T/C under setting [9] was 90.7%; the viability, T/C under setting [10] was 81.5%. The viability, T/C (second compound 0.316 µM, first compound 0.000316 µM) is 106%; the viability, T/C (second compound 0.316 µM, first compound 0.001 µM) is 96.6%; the viability, T/C (second compound 0.316 µM, first compound 0.00316 µM) is 104%; the viability, T/C (second compound 0.316 µM, first compound 0.01 µM) is 97.8%; the viability, T/C under setting [11] was 83.1%; the viability, T/C under setting [12] is 83%. Further, the viability, T/C is, setting by setting: (second compound 1 µM, first compound 0.000316 µM) 97%; (second compound 1 µM, first compound 0.001 µM) 93.3%; (second compound 1 µM, first compound 0.00316 µM) 84.9%; (second compound 1 µM, first compound 0.01 µM) 91.9%; under setting [13], 90.2%; under setting [14], 65.2%. Besides, the viability, T/C is 80.7% (second compound 3.16 µM, first compound 0.000316 µM); 70.6% (second compound 3.16 µM, first compound 0.001 µM); 76.5% (second compound 3.16 µM, first compound 0.00316 µM); 77.7% (second compound 3.16 µM, first compound 0.01 µM); 65.7% under setting [15]; 52.6% under setting [16]. In addition, the viability, T/C (second compound 10 µM, first compound 0.000316 µM) was 66.7%; the viability, T/C (second compound 10 µM, first compound 0.001 µM) is 75.9%; the viability, T/C (second compound 10 µM, first compound 0.00316 µM) is 65%; the viability, T/C (second compound 10 µM, first compound 0.01 µM) is 58.4%; the viability, T/C under setting [17] was 56.5%; the viability, T/C under setting [18] was 45.1%.
Take `CC(C)NCC(C(=O)N1CCN(c2ncnc3c2C(C)CC3O)CC1)c1ccc(Cl)cc1` (stereo unspecified): the viability, T/C reads like this: (compound 0.0316 µM) 97.8% [middle of 4 runs]; (compound 0.1 µM) 99.3% [middle of 4 runs]; (compound 0.316 µM) 94.3% [middle of 4 runs]; (compound 3.16 µM) 48.7% [middle of 4 runs]; (compound 10 µM) 31.1% [middle of 4 runs].
